Measurements reported in US20080142759A1, “Pyridine N-Oxide Based Azo Dyes And Their Metal Complexes For Use In Optical Layers For Optical Data Recording” (priority 2004, published 2008).

Assay: Thermal decomposition by DSC
Format: physicochemical
Source text: Sharp threshold of thermal decomposition within the required temperature range characterizes the new pyridine N-oxide based azo dyes which are assumed to be desirable for the application in optical layers for optical data recording.

DSC: dec. at (DSC): 260 °C
Dec.Pt (Table 1 summary): 260 °C
SMILES: CCN1C(O)=C(/N=N/c2c(O)ccc[n+]2[O-])C=CC1=C(C#N)C#N [(12)]
